Test results: PMC9609767, “Radiosynthesis and Preclinical Evaluation of an ^18F-Labeled Triazolopyridopyrazine-Based Inhibitor for Neuroimaging of the Phosphodiesterase 2A (PDE2A)” (Pharmaceuticals, 2022)
Where “and” joins values, the source holds several entries; their conditions need not be identical. Equal values may be shown once. Read-outs that look alike come from different tables or passages of the source.

Target: T1, rat PDE2A (Rattus norvegicus, UniProt Q01062)
T1 construct: Frozen sagittal 12 µm brain sections obtained from female SPRD and male Wistar-Han rats; from tissue; host or cells: rat brain cryosections (female SPRD and male Wistar-Han rats)
T1 sequence (Q01062 1-928): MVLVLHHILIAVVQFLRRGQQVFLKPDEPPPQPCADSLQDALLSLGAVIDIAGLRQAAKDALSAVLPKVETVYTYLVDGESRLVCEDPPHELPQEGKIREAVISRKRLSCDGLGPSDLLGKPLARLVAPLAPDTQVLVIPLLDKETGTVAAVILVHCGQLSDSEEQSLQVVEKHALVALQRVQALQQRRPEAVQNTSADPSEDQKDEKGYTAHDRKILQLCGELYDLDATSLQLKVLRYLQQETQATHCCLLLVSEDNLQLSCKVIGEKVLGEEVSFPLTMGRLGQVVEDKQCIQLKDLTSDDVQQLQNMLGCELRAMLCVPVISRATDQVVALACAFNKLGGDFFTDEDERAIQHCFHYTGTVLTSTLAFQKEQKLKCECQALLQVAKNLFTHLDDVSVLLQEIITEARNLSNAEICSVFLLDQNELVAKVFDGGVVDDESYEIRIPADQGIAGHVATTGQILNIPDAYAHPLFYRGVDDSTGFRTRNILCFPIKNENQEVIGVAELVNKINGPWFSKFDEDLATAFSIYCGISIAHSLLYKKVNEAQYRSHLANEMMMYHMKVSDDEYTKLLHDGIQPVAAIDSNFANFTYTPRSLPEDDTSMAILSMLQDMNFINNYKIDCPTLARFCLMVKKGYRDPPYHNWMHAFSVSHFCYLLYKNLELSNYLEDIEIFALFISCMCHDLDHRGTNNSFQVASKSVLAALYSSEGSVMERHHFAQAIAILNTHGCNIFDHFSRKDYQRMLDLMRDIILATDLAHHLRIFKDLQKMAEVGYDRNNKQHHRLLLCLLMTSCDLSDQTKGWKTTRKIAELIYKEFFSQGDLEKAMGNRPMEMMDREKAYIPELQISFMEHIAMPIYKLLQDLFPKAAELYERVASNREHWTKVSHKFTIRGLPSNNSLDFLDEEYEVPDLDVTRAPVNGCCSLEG
Assay: In vitro autoradiography with rat brain cryosections
Assay type: binding
Conditions: for Kd: read-out: apparent KD
Experimental: Frozen sagittal 12 µm brain sections obtained from female SPRD and male Wistar-Han rats (10–12 weeks old) were thawed, dried in a stream of cold air, and pre-incubated for 15 min with incubation buffer (50 mM TRIS-HCl, pH 7.4; supplemented with 1 mM MgCl2, 1 mM CaCl2, 2 mM KCl, and 2 U/mL Adenosine deaminase) at ambient temperature. Afterwards, the buffer was decanted and the cryosections dried again in a stream of cold air before covering with the radioligand in incubation buffer (~0.1 MBq [^18F]11/mL; Am at the time of the incubation ~10 GBq/µmol) for incubation at ambient temperature for 90 min.
The incubation was terminated by pouring off the incubation solution and washing the slides twice with ice-cold buffer (50 mM TRIS-HCl, pH 7.4/4 °C) for 2 min and rinsing by dipping in ice-cold demineralised water. Immediately afterwards, the sections were dried in a stream of cold air and exposed along with appropriate radioactive standards (1 µL of serial dilutions of the radioligand in incubation buffer, pipetted on a microscopic glass slide and air dried) to an ^18F-sensitive image plate for 120 min. Finally, the imaging plate was scanned at the highest possible resolution (pixel size 12.6 µm × 12.6 µm) in a phosphor imager (HD-CR 35; Duerr NDT GmbH, Bietigheim Bissingen, Germany) and the digital image analysed with an image analysis program (Aida Image Analyzer v. 4.26; Elysia-raytest GmbH, Straubenhardt, Germany).
For the determination of the protein concentration, four dried 12 µm cryosections were scraped from the microscopic glass slides, transferred in an Eppendorf tube and solubilised with 200 µL of demineralised water. The protein concentration of this solution was determined by a commercial assay (Pierce™ BCA Protein Assay Kit, Thermo Fisher Scientific, Schwerte, Germany). The area of the cryosections was determined during the analysis of the digitized autoradiographic images, and the volume was calculated by multiplying the area with the thickness of the slices. Finally, the protein concentration of the tissue was calculated (37 mg protein/g wet weight).

[1] = caudate putamen, female SPRD rat
[2] = caudate putamen, male Wistar-Han rat

Structure (SMILES): CCCC(O)c1ccc([18F])c(-c2nnc3c(C)nc4ccc(C5CC5)nc4n23)c1 (stereo not shown) [[^18F]11]
- Kd (caudate nucleus and putamen, homologous competition, overall value (SPRD and Wistar)): ~0.2 nM and 0.24 nM
- apparent Bmax (caudate nucleus and putamen, overall value (SPRD and Wistar)): ~20 pmol/mg protein and 16 pmol/mg protein
- apparent Bmax [1]: 14 pmol/mg protein
- Kd [1]: 0.38 nM
- apparent Bmax [2]: 18 pmol/mg protein
- Kd [2]: 0.1 nM
- caudate putamen-to-cerebellum ratio (in vitro autoradiography, equilibrium conditions): about 2
